Source: EP3311800B1, “COMPOSITION COMPRISING MICROSTRUCTURES FOR THE CONTROLLED RELEASE OF OZONIZED OIL” (Project & Communications, Ltd., priority 2016, dated 2018)

Test system: fibroblast L929
Assay: cytotoxicity test (MTT test), UNI EN ISO 10993-5:2009
Assay type: cell-based
Settings: Mus musculus
Description: The four compositions indicated above were subjected to a cytotoxicity test (MTT test).
As is known, the cytotoxicity test (MTT test) is a reduction test used for determining the level of metabolic activity in the eukaryote cells. This is one of the most widely used cytotoxicity tests, thanks to its simplicity, accuracy and reproducibility. The chemical base of the test is the reduction of MTT, a tetrazole compound [3-(4,5-dimethylthiazol-2-yl)-2,5-diphenyltetrazolium bromide]. MTT is a yellow substance which, after reduction, forms a purple-colored formazan salt.
The process mainly takes place in the cytoplasm and secondarily in the mitochondria and at the level of the plasmatic membrane. The activity of the reductase that catalyze the reaction is highly dependent on the concentration of the intracellular NADH and NADPH, whose levels are associated with the availability of extracellular glucose. The mitochondrial succinate dehydrogenase and the cytochrome C also take part in the reduction of MTT. Consequently, any substance or treatment that interferes with these enzymes or with the glycolysis would influence the reduction of MTT and would therefore alter the results of the cell count. As a result of these metabolic reduction processes, dark purple crystals of formazan are formed within a few hours. These crystals can be solubilized in various organic solvents, mainly alcohols. An increase or a reduction in the number of cells causes an analogous variation in the quantity of formazan formed, thus giving an indication of the degree of cytotoxicity of the product tested.
The MTT test was carried out on cultures of fibroblast L929 treated with the extract (transfer liquid as such obtained after overnight incubation of the composition under examination in the culture medium) and subsequent dilutions 1:2. The same procedure was also applied for the negative reference (internal standard), whereas the positive control (SDS) was tested at concentrations ranging from 0.00313 to 0.4 mg/ml. Sodium dodecyl sulfate (SDS), a substance with known cytotoxic effects was used as positive control, whereas a non-cytotoxic internal standard was used as negative reference. The analysis was carried out according to the ISO standard for the biological evaluation of medical devices UNI EN ISO 10993-5:2009 (E) .
More specifically, an adequate number of cells was seeded in 96-well plates. Once a semi-confluent monolayer had been reached, the cells were treated with the various concentrations of the sample tested and standards and incubated for 24 hours under standard conditions. Non-treated cells kept in the culture medium represent the negative controls. After 24 hours of contact, the plates were examined under a phase contrast microscope, the medium was carefully removed from each well, the cells were then treated with MTT (1 mg/ml) and incubated for 3 hours under standard conditions. At the end of this period, the solution of MTT was eliminated and 100 µl of isopropanol were added to each well to dissolve the formazan crystals formed. The absorbance (optical density, OD) was determined by reading the spectrophotometer at a wavelength of 540 nm.
The inhibition of the cell vitality at each tested concentration was expressed as a percentage with respect to the negative control (non-treated cells) according to the following formula: Inhibition % = 100−[ODX /ODNC )×100] […]
The values thus calculated were charted against the same concentrations. […]

SMILES: CCCCCCCCCCCCOS(=O)(=O)[O-].[Na+] [SDS, Sodium dodecyl sulfate]
- inhibition at 50 µg/mL (Concentration 0.05 mg/ml, 24 hours, read-out: Cell vitality inhibition (%)): 66.5%
- inhibition at 100 µg/mL (Concentration 0.1 mg/ml, 24 hours, read-out: Cell vitality inhibition (%)): 97.2%
- inhibition at 200 µg/mL (Concentration 0.2 mg/ml, 24 hours, read-out: Cell vitality inhibition (%)): 97.5%
- inhibition at 400 µg/mL (Concentration 0.4 mg/ml, 24 hours, read-out: Cell vitality inhibition (%)): 96.8%
- IC50 (concentration inhibiting cell vitality by 50%, extrapolated from concentration/response curve): 46 µg/mL
